Legend:
Assay in all cases: relative viability (nuclei count vs DMSO), 5 days (fraction); higher = more cells survive
KIN001-266 + Linsitinib = compound: CCN1CCC(CC1)N2C=C(N=N2)CNC3=CC4=C(C(=CN=C4C(=C3)Cl)C#N)NC5=CC(=C(C=C5)F)Cl [KIN001-266] + C[C@]1(O)C[C@@H](c2nc(-c3ccc4ccc(-c5ccccc5)nc4c3)c3c(N)nccn32)C1 [Linsitinib] (partner 1 µM)
Procedure, shortened: (§1)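 For relative viability, nuclei counts in treated wells were divided by those in vehicle wells. Lung cancer cell lines had been pin-tool dosed in 1536-well plates the day after seeding and cultured for 5 days, then fixed and stained in one step (final 0.05% Triton X-100, 1% formaldehyde, 1 ug/ml Hoechst) and imaged at 4×. Doses were one drug alone or a fixed anchor-drug dose plus five library-drug doses (not always all listed) in √10 steps, and values are duplicate-plate medians.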

KIN001-266 + Lapatinib = compound: CCN1CCC(CC1)N2C=C(N=N2)CNC3=CC4=C(C(=CN=C4C(=C3)Cl)C#N)NC5=CC(=C(C=C5)F)Cl [KIN001-266] + CS(=O)(=O)CCNCc1ccc(-c2ccc3ncnc(Nc4ccc(OCc5cccc(F)c5)c(Cl)c4)c3c2)o1 [Lapatinib] (partner 2 µM)
Procedure, shortened: as §1

KIN001-266 + Alpelisib = compound: CCN1CCC(CC1)N2C=C(N=N2)CNC3=CC4=C(C(=CN=C4C(=C3)Cl)C#N)NC5=CC(=C(C=C5)F)Cl [KIN001-266] + Cc1nc(NC(=O)N2CCC[C@H]2C(N)=O)sc1-c1ccnc(C(C)(C)C(F)(F)F)c1 [Alpelisib] (partner 2 µM)
Procedure, shortened: as §1

KIN001-266 + OSI-027 = compound: CCN1CCC(CC1)N2C=C(N=N2)CNC3=CC4=C(C(=CN=C4C(=C3)Cl)C#N)NC5=CC(=C(C=C5)F)Cl [KIN001-266] + COc1cccc2cc(-c3nc([C@H]4CC[C@H](C(=O)O)CC4)n4ncnc(N)c34)[nH]c12 [OSI-027] (partner 0.5 µM)
Procedure, shortened: as §1

Cell Line | relative viability (KIN001-266 + Linsitinib; first compound 0.08 µM) | relative viability (KIN001-266 + Linsitinib; first compound 0.253 µM) | relative viability (KIN001-266 + Linsitinib; first compound 0.8 µM) | relative viability (KIN001-266 + Linsitinib; first compound 2.53 µM) | relative viability (KIN001-266 + Linsitinib; first compound 8 µM) | relative viability (KIN001-266 + Lapatinib; first compound 0.08 µM) | relative viability (KIN001-266 + Lapatinib; first compound 0.253 µM) | relative viability (KIN001-266 + Lapatinib; first compound 0.8 µM) | relative viability (KIN001-266 + Lapatinib; first compound 2.53 µM) | relative viability (KIN001-266 + Lapatinib; first compound 8 µM) | relative viability (KIN001-266 + Alpelisib; first compound 0.08 µM) | relative viability (KIN001-266 + Alpelisib; first compound 0.253 µM) | relative viability (KIN001-266 + Alpelisib; first compound 0.8 µM) | relative viability (KIN001-266 + Alpelisib; first compound 2.53 µM) | relative viability (KIN001-266 + Alpelisib; first compound 8 µM) | relative viability (KIN001-266 + OSI-027; first compound 0.08 µM) | relative viability (KIN001-266 + OSI-027; first compound 0.253 µM) | relative viability (KIN001-266 + OSI-027; first compound 0.8 µM) | relative viability (KIN001-266 + OSI-027; first compound 2.53 µM) | relative viability (KIN001-266 + OSI-027; first compound 8 µM)
NCI-H1395 | 1.06 | 1.02 | 1.19 | 1.11 | 0.949 | 1.28 | 1.13 | 1.25 | 0.935 | 1.16 | 1.07 | 1.06 | 1.23 | 0.955 | 1.05 | 0.719 | 0.761 | 0.715 | 0.594 | 0.591
NCI-H1437 | 1.07 | 1 | 1.03 | 1.03 | 0.583 | 0.781 | 0.819 | 0.746 | 0.798 | 0.483 | 0.997 | 1.06 | 0.961 | 0.858 | 0.495 | 0.938 | 0.91 | 0.862 | 0.85 | 0.56
NCI-H1563 | 1.16 | 1.22 | 1.25 | 1.16 | 1.1 | 1.05 | 1.1 | 0.968 | 0.922 | 0.835 | 0.996 | 0.904 | 0.92 | 0.906 | 0.897 | 0.794 | 0.745 | 0.875 | 0.758 | 0.756
NCI-H1651 | 1.08 | 1.02 | 0.948 | 0.998 | 0.861 | 0.912 | 0.931 | 0.85 | 0.962 | 0.84 | 1.05 | 0.949 | 1.01 | 0.99 | 0.865 | 0.709 | 0.787 | 0.743 | 0.753 | 0.636
NCI-H1666 | 1.02 | 0.861 | 0.869 | 0.825 | 0.674 | 0.804 | 0.646 | 0.671 | 0.646 | 0.509 | 0.985 | 0.999 | 0.901 | 0.887 | 0.696 | 0.838 | 0.879 | 0.88 | 0.849 | 0.802
NCI-H1734 | 0.812 | 0.876 | 0.735 | 0.848 | 0.856 | 1.1 | 1.32 | 1.03 | 0.982 | 1.02 | 0.686 | 0.686 | 0.546 | 0.716 | 0.704 | 0.621 | 0.583 | 0.578 | 0.549 | 0.522
NCI-H1755 | 1 | 0.973 | 0.965 | 0.955 | 0.844 | 0.987 | 1.04 | 1.06 | 0.996 | 0.987 | 1 | 0.895 | 0.95 | 0.843 | 0.816 | 0.74 | 0.739 | 0.679 | 0.723 | 0.651
NCI-H1792 | 0.544 | 0.471 | 0.515 | 0.603 | 0.533 | 0.894 | 0.916 | 0.86 | 0.925 | 0.853 | 0.715 | 0.752 | 0.695 | 0.8 | 0.669 | 0.772 | 0.711 | 0.729 | 0.732 | 0.691
NCI-H1793 | 0.806 | 0.829 | 0.75 | 0.879 | 1.03 | 0.646 | 0.643 | 0.81 | 0.485 | 0.561 | 0.829 | 0.624 | 0.822 | 0.897 | 0.572 | 0.332 | 0.254 | 0.231 | 0.258 | 0.204
NCI-H1915 | 1.1 | 1.1 | 1.1 | 1.06 | 0.998 | 0.959 | 0.974 | 1.02 | 1.02 | 0.993 | 1.05 | 1.06 | 1.01 | 1.04 | 0.97 | 0.703 | 0.635 | 0.629 | 0.661 | 0.49
NCI-H1944 | 1.3 | 1.23 | 1.14 | 1.29 | 1.22 | 0.826 | 0.895 | 0.774 | 0.816 | 0.828 | 0.865 | 0.813 | 0.797 | 0.801 | 0.852 | 0.46 | 0.473 | 0.373 | 0.44 | 0.343
NCI-H1975 | 0.981 | 1.04 | 1.08 | 1.02 | 0.958 | 0.902 | 0.938 | 1.03 | 1.05 | 0.969 | 0.696 | 0.75 | 0.667 | 0.665 | 0.597 | 0.692 | 0.776 | 0.769 | 0.691 | 0.555
NCI-H1993 | 0.714 | 0.657 | 0.828 | 0.687 | 0.797 | 0.896 | 0.775 | 0.841 | 0.793 | 0.746 | 0.664 | 0.682 | 0.692 | 0.642 | 0.634 | 0.562 | 0.537 | 0.607 | 0.582 | 0.63
NCI-H2009 | 1.23 | 1.12 | 1.2 | 1.16 | 1.05 | 0.981 | 1.07 | 0.905 | 0.927 | 0.645 | 1.21 | 1.17 | 1.19 | 1.03 | 0.983 | 0.711 | 0.686 | 0.744 | 0.493 | 0.41
NCI-H2023 | 0.696 | 0.706 | 0.696 | 0.617 | 0.481 | 0.774 | 0.971 | 1.09 | 0.855 | 0.34 | 0.672 | 0.64 | 0.588 | 0.598 | 0.618 | 0.449 | 0.437 | 0.379 | 0.368 | 0.241
NCI-H2085 | 0.854 | 0.986 | 0.908 | 0.949 | 0.793 | 0.829 | 0.853 | 0.716 | 0.755 | 0.617 | 0.941 | 0.983 | 0.959 | 1 | 0.795 | 0.808 | 0.835 | 0.582 | 0.759 | 0.416

Reference: the supplement of paper PMC10307832
